Laboratory results as given in ChEMBL document CHEMBL3885861, “Open TG-GATES”.

Species: Rattus norvegicus
Assay: Open TG-GATES - Regimen: Daily Repeat
Assay type: toxicity, organism-based, Sprague-Dawley
Set-up: regimen Daily Repeat, gender Male, age 6 weeks
Conditions: in vivo, po, 1000 mg/kg, route gavage, dose level High; for APTT / Bas / Eos / Fbg / Hb / Ht / Lym / MCHC / MCV / Mono / Neu / PT / Plat / RBC / Ret / WBC: tissue Blood
[1] = 72 h, tissue Kidney, time 3 day
[2] = 72 h, tissue Plasma, time 3 day

**Q.** How did the TERMINAL_BW (72 h, time 3 day) turn out when `CN(C)C(=N)N=C(N)N` [METFORMIN] was run?
**A.** 213.8 g

**Q.** What about the APTT (72 h, time 3 day) of the same compound?
**A.** 17.6 s

**Q.** What about the Bas (72 h, time 3 day) of the same compound?
**A.** 0%

**Q.** And the Eos (72 h, time 3 day)?
**A.** 1%

**Q.** What about the Fbg (72 h, time 3 day) of the same compound?
**A.** 223.8 mg/dL

**Q.** What about the Hb (72 h, time 3 day) of the same compound?
**A.** 13.4 g/dL

**Q.** And the Ht (72 h, time 3 day)?
**A.** 39.4%

**Q.** And the Lym (72 h, time 3 day)?
**A.** 72.8%

**Q.** What about the MCHC (72 h, time 3 day) of the same compound?
**A.** 34.1%

**Q.** And the MCV (72 h, time 3 day)?
**A.** 63.1 fL

**Q.** And the Mono (72 h, time 3 day)?
**A.** 4%

**Q.** And the Neu (72 h, time 3 day)?
**A.** 22%

**Q.** What about the PT (72 h, time 3 day) of the same compound?
**A.** 12.4 s

**Q.** What about the Plat (72 h, time 3 day) of the same compound?
**A.** 121.1 x10_4/uL

**Q.** And the RBC (72 h, time 3 day)?
**A.** 624.8 x10_4/ul

**Q.** And the Ret (72 h, time 3 day)?
**A.** 5.5%

**Q.** And the WBC (72 h, time 3 day)?
**A.** 107 x10_2/uL

**Q.** What about the KIDNEY_L [1] of the same compound?
**A.** 0.9 g

**Q.** What about the KIDNEY_R [1] of the same compound?
**A.** 0.9 g

**Q.** What about the KIDNEY_TOTAL [1] of the same compound?
**A.** 1.8 g

**Q.** And the LIVER (72 h, tissue Liver, time 3 day)?
**A.** 11.6 g

**Q.** And the ALP [2]?
**A.** 1276.4 IU/L

**Q.** And the ALT [2]?
**A.** 37.4 IU/L

**Q.** What about the AST [2] of the same compound?
**A.** 74 IU/L

**Q.** What about the BUN [2] of the same compound?
**A.** 16.6 mg/dL

**Q.** What about the CRE [2] of the same compound?
**A.** 0.2 mg/dL

**Q.** What about the Ca [2] of the same compound?
**A.** 11.1 mg/dL

**Q.** What about the Cl [2] of the same compound?
**A.** 104 meq/L

**Q.** What about the DBIL [2] of the same compound?
**A.** 0.012 mg/dL

**Q.** What about the GLC [2] of the same compound?
**A.** 180.2 mg/dL

**Q.** What about the IP [2] of the same compound?
**A.** 8.7 mg/dL

**Q.** And the K [2]?
**A.** 4.1 meq/L

**Q.** And the LDH [2]?
**A.** 63.4 IU/L

**Q.** What about the Na [2] of the same compound?
**A.** 140.2 meq/L

**Q.** What about the PL [2] of the same compound?
**A.** 137.8 mg/dL

**Q.** What about the RALB [2] of the same compound?
**A.** 2.5 g/dL

**Q.** What about the TBIL [2] of the same compound?
**A.** 0.032 mg/dL

**Q.** And the TG [2]?
**A.** 95.8 mg/dL

**Q.** And the TP [2]?
**A.** 5.4 g/dL

**Q.** What about the gamma-GTP [2] of the same compound?
**A.** 1.2 IU/L

**Q.** What about the TERMINAL_BW ([…], time 7 day) of the same compound?
**A.** 243 g

**Q.** And the TERMINAL_BW ([…], time 14 day)?
**A.** 288.9 g

**Q.** What about the TERMINAL_BW ([…], time 28 day) of the same compound?
**A.** 357 g

**Q.** What about the APTT ([…], time 7 day) of the same compound?
**A.** 15.3 s

**Q.** And the Bas ([…], time 7 day)?
**A.** 0.2%

**Q.** And the Eos ([…], time 7 day)?
**A.** 0.6%

**Q.** What about the Fbg ([…], time 7 day) of the same compound?
**A.** 254.8 mg/dL

**Q.** What about the Hb ([…], time 7 day) of the same compound?
**A.** 13.8 g/dL

**Q.** What about the Ht ([…], time 7 day) of the same compound?
**A.** 41%

**Q.** What about the Lym ([…], time 7 day) of the same compound?
**A.** 80.4%

**Q.** And the MCHC ([…], time 7 day)?
**A.** 33.7%

**Q.** And the MCV ([…], time 7 day)?
**A.** 61.8 fL

**Q.** What about the Mono ([…], time 7 day) of the same compound?
**A.** 3.2%

**Q.** And the Neu ([…], time 7 day)?
**A.** 15.2%

**Q.** And the PT ([…], time 7 day)?
**A.** 12.1 s

**Q.** And the Plat ([…], time 7 day)?
**A.** 116.4 x10_4/uL

**Q.** What about the RBC ([…], time 7 day) of the same compound?
**A.** 664 x10_4/ul

**Q.** And the Ret ([…], time 7 day)?
**A.** 5.5%

**Q.** What about the WBC ([…], time 7 day) of the same compound?
**A.** 101.5 x10_2/uL

**Q.** And the APTT ([…], time 14 day)?
**A.** 17 s

**Q.** What about the Bas ([…], time 14 day) of the same compound?
**A.** 0%

**Q.** And the Eos ([…], time 14 day)?
**A.** 0.8%

**Q.** And the Fbg ([…], time 14 day)?
**A.** 252.2 mg/dL

**Q.** And the Hb ([…], time 14 day)?
**A.** 14.4 g/dL

**Q.** And the Ht ([…], time 14 day)?
**A.** 41.7%

**Q.** And the Lym ([…], time 14 day)?
**A.** 75.4%

**Q.** And the MCHC ([…], time 14 day)?
**A.** 34.5%

**Q.** What about the MCV ([…], time 14 day) of the same compound?
**A.** 59.5 fL

**Q.** What about the Mono ([…], time 14 day) of the same compound?
**A.** 3.4%

**Q.** And the Neu ([…], time 14 day)?
**A.** 19.6%

**Q.** And the PT ([…], time 14 day)?
**A.** 12.2 s

**Q.** And the Plat ([…], time 14 day)?
**A.** 124 x10_4/uL

**Q.** What about the RBC ([…], time 14 day) of the same compound?
**A.** 702 x10_4/ul

**Q.** What about the Ret ([…], time 14 day) of the same compound?
**A.** 4.4%

**Q.** And the WBC ([…], time 14 day)?
**A.** 121.9 x10_2/uL

**Q.** And the APTT ([…], time 28 day)?
**A.** 17.8 s

**Q.** And the Bas ([…], time 28 day)?
**A.** 0%

**Q.** What about the Eos ([…], time 28 day) of the same compound?
**A.** 1.2%

**Q.** And the Fbg ([…], time 28 day)?
**A.** 258.6 mg/dL

**Q.** What about the Hb ([…], time 28 day) of the same compound?
**A.** 15 g/dL
